# From patent US12606568B2, “SMARCA degraders and uses thereof” (Kymera Therapeutics, Inc., priority 2020, dated 2026)
# Assays:
# Assay type in all cases: cell-based
# SMARCA2 [1] = target: T1, SMARCA2 (Homo sapiens, UniProt P51531); test: SMARCA2 Western blot MV4-11 degradation; set-up: SMARCA2 and SMARCA4 protein degradation in MV4-11 cells; endogenous in cells; host or cells: MV4-11; settings: 24 h; for Dmax: MV4-11, MV4-11 cells, read-out: SMARCA2 MSD MV411 degradation 24 h: average Dmax %; for DC50: MV4-11 cells, read-out: SMARCA2 MSD MV411 degradation 24 h: Mean external-Abs DC50
# T1 sequence (P51531 whole entry): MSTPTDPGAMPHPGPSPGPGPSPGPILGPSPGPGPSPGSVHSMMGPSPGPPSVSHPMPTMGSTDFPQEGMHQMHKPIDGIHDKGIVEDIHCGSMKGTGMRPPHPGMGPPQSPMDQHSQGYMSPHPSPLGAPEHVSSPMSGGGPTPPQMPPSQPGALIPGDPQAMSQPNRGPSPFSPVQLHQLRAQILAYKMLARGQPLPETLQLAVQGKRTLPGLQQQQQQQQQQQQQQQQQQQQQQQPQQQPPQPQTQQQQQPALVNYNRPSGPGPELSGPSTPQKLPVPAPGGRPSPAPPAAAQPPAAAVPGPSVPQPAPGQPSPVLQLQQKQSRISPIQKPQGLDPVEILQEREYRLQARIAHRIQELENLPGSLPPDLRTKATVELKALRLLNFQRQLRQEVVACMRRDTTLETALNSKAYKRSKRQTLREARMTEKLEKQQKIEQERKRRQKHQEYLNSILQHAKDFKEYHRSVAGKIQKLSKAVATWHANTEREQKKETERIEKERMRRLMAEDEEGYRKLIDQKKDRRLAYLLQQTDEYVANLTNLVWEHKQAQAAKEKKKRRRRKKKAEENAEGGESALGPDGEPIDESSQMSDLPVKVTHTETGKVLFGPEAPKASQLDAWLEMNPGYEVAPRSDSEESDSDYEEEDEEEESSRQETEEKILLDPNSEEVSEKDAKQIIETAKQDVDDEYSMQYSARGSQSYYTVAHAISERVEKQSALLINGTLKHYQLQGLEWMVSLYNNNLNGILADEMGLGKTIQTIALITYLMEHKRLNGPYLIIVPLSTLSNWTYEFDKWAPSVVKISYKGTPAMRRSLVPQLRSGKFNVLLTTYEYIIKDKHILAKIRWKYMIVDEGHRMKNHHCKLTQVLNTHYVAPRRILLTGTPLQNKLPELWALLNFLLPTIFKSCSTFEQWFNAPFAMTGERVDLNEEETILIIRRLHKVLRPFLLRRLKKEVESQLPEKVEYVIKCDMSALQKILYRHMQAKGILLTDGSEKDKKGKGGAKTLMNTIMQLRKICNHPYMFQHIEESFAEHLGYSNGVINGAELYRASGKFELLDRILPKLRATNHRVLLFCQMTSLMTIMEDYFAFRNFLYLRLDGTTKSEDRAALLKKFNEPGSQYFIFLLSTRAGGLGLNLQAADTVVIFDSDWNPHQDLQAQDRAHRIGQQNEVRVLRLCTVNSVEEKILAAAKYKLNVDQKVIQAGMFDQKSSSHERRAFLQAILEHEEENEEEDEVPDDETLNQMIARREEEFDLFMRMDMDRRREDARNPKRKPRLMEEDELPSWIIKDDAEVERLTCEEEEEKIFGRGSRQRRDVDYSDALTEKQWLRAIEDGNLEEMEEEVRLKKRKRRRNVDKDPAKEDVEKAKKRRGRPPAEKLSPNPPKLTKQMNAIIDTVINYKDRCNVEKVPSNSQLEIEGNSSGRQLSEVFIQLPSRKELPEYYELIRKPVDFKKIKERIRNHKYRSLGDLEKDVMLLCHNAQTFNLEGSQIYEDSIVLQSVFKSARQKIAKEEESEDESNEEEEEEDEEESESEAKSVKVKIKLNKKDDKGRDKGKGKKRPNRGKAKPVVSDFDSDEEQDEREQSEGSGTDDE
# SMARCA4 = target: T2, SMARCA4 (Homo sapiens, UniProt P51532); test: SMARCA4 Western blot MV4-11 degradation; settings: 24 h; for Dmax: MV4-11, MV4-11 cells, read-out: SMARCA4 MSD MV411 degradation 24 h: average Dmax %; for DC50: MV4-11 cells, read-out: SMARCA4 MSD MV411 degradation 24 h: Mean external-Abs DC50
# T2 construct: SMARCA2 and SMARCA4 protein degradation in MV4-11 cells; endogenous in cells; host or cells: MV4-11
# T2 sequence (P51532 whole entry): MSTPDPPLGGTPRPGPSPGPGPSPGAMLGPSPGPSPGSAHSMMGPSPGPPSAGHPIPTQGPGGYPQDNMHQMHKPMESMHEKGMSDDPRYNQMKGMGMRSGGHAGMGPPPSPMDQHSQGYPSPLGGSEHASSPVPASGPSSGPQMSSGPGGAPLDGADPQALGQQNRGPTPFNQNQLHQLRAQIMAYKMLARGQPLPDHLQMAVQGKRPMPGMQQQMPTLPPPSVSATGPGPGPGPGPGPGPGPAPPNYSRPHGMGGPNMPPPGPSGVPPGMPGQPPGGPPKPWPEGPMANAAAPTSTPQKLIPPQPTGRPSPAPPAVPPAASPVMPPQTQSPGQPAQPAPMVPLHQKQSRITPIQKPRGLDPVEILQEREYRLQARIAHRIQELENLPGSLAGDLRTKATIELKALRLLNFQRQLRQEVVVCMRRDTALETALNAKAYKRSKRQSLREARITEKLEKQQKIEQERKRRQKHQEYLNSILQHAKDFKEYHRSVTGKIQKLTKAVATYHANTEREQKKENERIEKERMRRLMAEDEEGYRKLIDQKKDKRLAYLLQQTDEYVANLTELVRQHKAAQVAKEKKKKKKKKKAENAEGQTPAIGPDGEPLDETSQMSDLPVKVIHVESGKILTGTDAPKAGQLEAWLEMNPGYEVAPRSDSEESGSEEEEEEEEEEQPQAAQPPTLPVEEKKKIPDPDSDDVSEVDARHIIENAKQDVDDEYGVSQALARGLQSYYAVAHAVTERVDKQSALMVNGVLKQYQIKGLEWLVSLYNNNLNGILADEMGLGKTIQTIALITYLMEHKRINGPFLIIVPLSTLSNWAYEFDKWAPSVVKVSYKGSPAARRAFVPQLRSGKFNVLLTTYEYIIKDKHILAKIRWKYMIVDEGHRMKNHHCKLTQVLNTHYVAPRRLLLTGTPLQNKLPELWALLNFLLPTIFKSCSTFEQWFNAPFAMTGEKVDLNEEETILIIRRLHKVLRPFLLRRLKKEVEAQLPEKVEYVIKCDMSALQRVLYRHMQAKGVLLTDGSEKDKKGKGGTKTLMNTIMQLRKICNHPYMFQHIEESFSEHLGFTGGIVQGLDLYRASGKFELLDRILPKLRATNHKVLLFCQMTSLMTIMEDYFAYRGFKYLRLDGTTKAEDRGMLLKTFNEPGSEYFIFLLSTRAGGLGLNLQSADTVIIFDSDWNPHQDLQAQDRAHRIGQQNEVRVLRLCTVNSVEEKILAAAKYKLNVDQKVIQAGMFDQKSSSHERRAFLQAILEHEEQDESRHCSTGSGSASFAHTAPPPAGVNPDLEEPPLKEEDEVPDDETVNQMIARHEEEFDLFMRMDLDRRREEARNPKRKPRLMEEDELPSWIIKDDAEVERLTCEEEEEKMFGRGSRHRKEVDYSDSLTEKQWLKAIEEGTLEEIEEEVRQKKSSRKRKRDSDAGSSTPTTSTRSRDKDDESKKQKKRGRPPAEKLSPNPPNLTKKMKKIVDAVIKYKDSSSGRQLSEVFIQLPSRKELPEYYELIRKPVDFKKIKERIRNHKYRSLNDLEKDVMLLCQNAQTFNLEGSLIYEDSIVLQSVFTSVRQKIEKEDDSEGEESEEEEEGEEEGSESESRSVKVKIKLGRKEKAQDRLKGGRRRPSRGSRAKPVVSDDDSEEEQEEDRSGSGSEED
# SMARCA2 [2] = target: T1, SMARCA2; test: MSD SMARCA2 degradation in A549 cell line; set-up: endogenous in cells; settings: 24 h; for Dmax: A549, A549 cells; for DC50: A549 cells, read-out: SMARCA2 MSD A549 degradation 24 h: Average external-Abs DC50
# In short: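 A549 cells treated 24 h with compound, 3-fold series 1000 nM down to 0.152 nM plus DMSO. RIPA lysates captured on MSD plates, probed with rabbit anti-SMARCA2/BRM (1 µg/ml) then SULFO-TAG anti-rabbit, electrochemiluminescence read. DC50 and 24 h Dmax reported as letter bins.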
Structure (SMILES),Dmax (SMARCA2 [1]),DC50 (SMARCA2 [1]),Dmax (SMARCA4),DC50 (SMARCA4),Dmax (SMARCA2 [2]),DC50 (SMARCA2 [2])
"Cc1ncsc1-c1ccc(CNC(=O)[C@@H]2C[C@@H](O)CN2C(=O)C(c2cc(OCCN3CCC(c4cnc(N5C6CCC5CN(c5cc(-c7ccccc7O)nnc5N)C6)nc4)CC3)no2)C(C)C)cc1 (stereo partly drawn) [I-50, (2S,4R)-1-(2-(3-(2-(4-(2-(3-(3-amino-6-(2-hydroxyphenyl)pyridazin-4-yl)-3,8-diazabicyclo[3.2.1]octan-8-yl)pyrimidin-5-yl)piperidin-1-yl)ethoxy)isoxazol-5-yl)-3-methylbutanoyl)-4-hydroxy-N-(4-(4-methylthiazol-5-yl)benzyl)pyrrolidine-2-carboxamide]",> 90%,< 100 nM,> 90%,< 100 nM,> 90%,< 100 nM
"Cc1ncsc1-c1ccc(CNC(=O)[C@@H]2C[C@@H](O)CN2C(=O)[C@H](c2cc(OCCCN3CCC(c4cnc(N5C6CCC5CN(c5cc(-c7ccccc7O)nnc5N)C6)nc4)CC3)no2)C(C)C)cc1 [I-52, (2S,4R)-1-((2S)-2-(3-(3-(4-(2-(3-(3-amino-6-(2-hydroxyphenyl)pyridazin-4-yl)-3,8-diazabicyclo[3.2.1]octan-8-yl)pyrimidin-5-yl)piperidin-1-yl)propoxy)isoxazol-5-yl)-3-methylbutanoyl)-4-hydroxy-N-(4-(4-methylthiazol-5-yl)benzyl)pyrrolidine-2-carboxamide]",> 90%,< 100 nM,> 90%,< 100 nM,> 90%,< 100 nM
"Cc1ncsc1-c1ccc(CNC(=O)[C@@H]2C[C@@H](O)CN2C(=O)[C@@H](c2cc(OCCCCN3CCC(c4cnc(N5C6CCC5CN(c5cc(-c7ccccc7O)nnc5N)C6)nc4)CC3)no2)C(C)C)cc1 [I-55, (2S,4R)-1-((2R)-2-(3-(4-(4-(2-(3-(3-amino-6-(2-hydroxyphenyl)pyridazin-4-yl)-3,8-diazabicyclo[3.2.1]octan-8-yl)pyrimidin-5-yl)piperidin-1-yl)butoxy)isoxazol-5-yl)-3-methylbutanoyl)-4-hydroxy-N-(4-(4-methylthiazol-5-yl)benzyl)pyrrolidine-2-carboxamide]",> 90%,< 100 nM,> 90%,< 100 nM,> 90%,< 100 nM
"Cc1ncsc1-c1ccc(CNC(=O)[C@@H]2C[C@@H](O)CN2C(=O)[C@@H](NC(=O)N2CC3(CC(N4CCC(c5cnc(N6C7CCC6CN(c6cc(-c8ccccc8O)nnc6N)C7)nc5)CC4)C3)C2)C(C)(C)C)cc1 [I-58, 6-(4-(2-(3-(3-amino-6-(2-hydroxyphenyl)pyridazin-4-yl)-3,8-diazabicyclo[3.2.1]octan-8-yl)pyrimidin-5-yl)piperidin-1-yl)-N—((S)-1-((2S,4R)-4-hydroxy-2-((4-(4-methylthiazol-5-yl)benzyl)carbamoyl)pyrrolidin-1-yl)-3,3-dimethyl-1-oxobutan-2-yl)-2-azaspiro[3.3]heptane-2-carboxamide]",> 90%,< 100 nM,50 to 70%,100 to 500 nM,> 90%,< 100 nM
"Cc1ncsc1-c1ccc(CNC(=O)[C@@H]2C[C@@H](O)CN2C(=O)[C@@H](NC(=O)N2CCC(N3CCC(c4cnc(N5C6CCC5CN(c5cc(-c7ccccc7O)nnc5N)C6)nc4)CC3)CC2)C(C)(C)C)cc1 [I-59, 4-(2-(3-(3-amino-6-(2-hydroxyphenyl)pyridazin-4-yl)-3,8-diazabicyclo[3.2.1]octan-8-yl)pyrimidin-5-yl)-N—((S)-1-((2S,4R)-4-hydroxy-2-((4-(4-methylthiazol-5-yl)benzyl)carbamoyl)pyrrolidin-1-yl)-3,3-dimethyl-1-oxobutan-2-yl)-[1,4′-bipiperidine]-1′-carboxamide]",< 50%,501 to 1000 nM,< 50%,> 1000 nM,< 50%,> 1000 nM
"Cc1ncsc1-c1ccc(CNC(=O)[C@@H]2C[C@@H](O)CN2C(=O)C(c2cc(N3CCC(CCN4CCC(c5cnc(N6C7CCC6CN(c6cc(-c8ccccc8O)nnc6N)C7)nc5)CC4)CC3)no2)C(C)C)cc1 (stereo partly drawn) [I-61, (2S,4R)-1-(2-(3-(4-(2-(4-(2-(3-(3-amino-6-(2-hydroxyphenyl)pyridazin-4-yl)-3,8-diazabicyclo[3.2.1]octan-8-yl)pyrimidin-5-yl)piperidin-1-yl)ethyl)piperidin-1-yl)isoxazol-5-yl)-3-methylbutanoyl)-4-hydroxy-N-(4-(4-methylthiazol-5-yl)benzyl)pyrrolidine-2-carboxamide]",> 90%,< 100 nM,> 90%,< 100 nM,> 90%,< 100 nM
"Cn1nccc1-c1ccc(CNC(=O)[C@@H]2C[C@@H](O)CN2C(=O)[C@@H](NC(=O)[C@H]2CC[C@H](c3cnc(N4C5CCC4CN(c4cc(-c6ccccc6O)nnc4N)C5)nc3)CC2)C(C)(C)C)cc1 [I-68, (2S,4R)-1-((2S)-2-((1r,4S)-4-(2-(3-(3-amino-6-(2-hydroxyphenyl)pyridazin-4-yl)-3,8-diazabicyclo[3.2.1]octan-8-yl)pyrimidin-5-yl)cyclohexanecarboxamido)-3,3-dime-thylbutanoyl)-4-hydroxy-N-(4-(1-methyl-1H-pyrazol-5-yl)benzyl)pyrrolidine-2-carboxamide]",> 90%,< 100 nM,> 90%,< 100 nM,> 90%,< 100 nM
"Cc1ncsc1-c1ccc(CNC(=O)[C@@H]2C[C@@H](O)CN2C(=O)[C@@H](NC(=O)CN2CC3(C2)CN(C2CCC(c4cnc(N5C6CCC5CN(c5cc(-c7ccccc7O)nnc5N)C6)nc4)CC2)C3)C(C)(C)C)cc1 (stereo partly drawn) [I-76, (2S,4R)-1-((2S)-2-(2-(6-(4-(2-(3-(3-amino-6-(2-hydroxyphenyl)pyridazin-4-yl)-3,8-diazabicyclo[3.2.1]octan-8-yl)pyrimidin-5-yl)cyclohexyl)-2,6-diazaspiro[3.3]heptan-2-yl)acetamido)-3,3-dimethylbutanoyl)-4-hydroxy-N-(4-(4-methylthiazol-5-yl)benzyl)pyrrolidine-2-carboxamide]",> 90%,< 100 nM,> 90%,< 100 nM,> 90%,501 to 1000 nM
"Cc1ncsc1-c1ccc(CNC(=O)[C@@H]2C[C@H](O)CN2C(=O)[C@@H](NC(=O)[C@H]2CC3(C2)C[C@H](N2CCC(c4cnc(N5C6CCC5CN(c5cc(-c7ccccc7O)nnc5N)C6)nc4)CC2)C3)C(C)(C)C)cc1 (stereo partly drawn) [I-79, (2S,4S)-1-((2S)-2-(6-(4-(2-(3-(3-amino-6-(2-hydroxyphenyl)pyridazin-4-yl)-3,8-diazabicyclo[3.2.1]octan-8-yl)pyrimidin-5-yl)piperidin-1-yl)spiro[3.3]heptane-2-carboxamido)-3,3-dimethylbutanoyl)-4-hydroxy-N-(4-(4-methylthiazol-5-yl)benzyl)pyrrolidine-2-carboxamide]",< 50%,> 1000 nM,< 50%,> 1000 nM,< 50%,> 1000 nM
